Results reported in PMC11845477, “Exploring the principles behind antibiotics with limited resistance” (Nature Communications, 2025).

Assays:
[1] = system: P. aeruginosa ATCC BAA-3107 (SEN) and P. aeruginosa LESB58 (MDR); assay: microbe, parasite or virus in culture; format: cell-based, Pseudomonas aeruginosa; conditions: for MIC: across three biological replicates; for MIC of ancestor: ancestor strain
Description: This study focused on multiple bacterial strains, as follows. For the FoR and ALE experiments, 2 strains per species were chosen: E. coli ATCC 25922, K. pneumoniae ATCC 10031, A. baumannii ATCC 17978, and P. aeruginosa ATCC BAA-3107 as sensitive (SEN) strains, and E. coli NCTC13846, K. pneumoniae ATCC 700603, A. baumannii ATCC BAA-1605 and P. aeruginosa LESB58 as multi-drug resistant (MDR) strains. Functional metagenomic screens were performed with E. coli ATCC 25922 and K. pneumoniae ATCC 10031 strains. To determine the dose-kill properties of the different antibiotics, an E. coli strain (ATCC 25922) expressing a yellow fluorescent protein (pZS2R, YFP, CHL^R) and a red fluorescent protein (pZS2R, mCherry, CHL^R) was used.
Unless otherwise indicated, cation-adjusted Mueller-Hinton Broth 2 (MHB, Millipore) medium was used throughout the study, except for SCH79797 (SCH).
(§1) A robotic liquid handling system was used to automatically prepare a 11 to 16-step serial dilution in 384-well microtiter plates (Greiner). A final concentration of 5 × 10^5 bacterial cells per mL were inoculated into each well containing 60 µL MHB medium. Bacterial cultures were incubated at 37 °C with continuous shaking (Infors shaker, 900 rpm with 3 mm throw) for 18 hours (2 replicates from each). Cell growth was monitored by measuring the optical density (OD600 values, using Biotek Synergy microplate reader). MIC was defined as the antibiotic concentration of complete growth inhibition (i.e., OD600 < 0.05). Relative MIC was calculated as follows:1 relativeMIC=MICevolved/MICancestor

[2] = system: E. coli ATCC 25922 (SEN) and E. coli NCTC13846 (MDR); assay: Adaptive laboratory evolution (ALE), relative MIC of evolved lines; format: cell-based, Escherichia coli
Source text: Using the same set of bacterial strains, we initiated adaptive laboratory evolution with the aim to maximize the level of antibiotic resistance in the populations achieved during a longer, but fixed time period.
An established protocol for adaptive laboratory evolution[46],[73] was followed to propagate populations with the highest resistance levels. Starting with an antibiotic concentration that caused approximately 50% growth inhibition, ten parallel populations for each antibiotic-ancestor strain combination were grown for 72 hours at 37 °C with continuous shaking (300 RPM). MHB broth medium was used unless stated otherwise. After each incubation, 20 µl of each culture was transferred to four new wells containing fresh medium with increasing antibiotic concentrations (0.5×, 1×, 1.5×, and 2.5× the previous concentration) in a chessboard layout to monitor potential cross-contamination. Growth was monitored by measuring OD600 using a Biotek Synergy 2 microplate reader, and only populations grown in the highest drug concentration with an OD600 > 0.2 were transferred further.
as §1, with “relativeMIC=MICevolved/MICancestor […]” for “relativeMIC=MICevolved/MICancestor”
Supplementary Figure 4. Resistance levels following adaptive laboratory evolution across bacterial strains. The level of resistance was measured as the fold change in relative MIC between evolved and ancestral strains after ~60 days of adaptive laboratory evolution. Data are grouped by bacterial strain (A. baumannii (AB), E. coli (EC), K. pneumoniae (KP), and P. aeruginosa (PA)) and categorized as either multidrug-resistant (MDR) or sensitive (SEN). Each data point represents a laboratory evolved line, and boxplots show the median, first and third quartiles, with whiskers indicating the 5th and 95th percentiles.
Statistical analysis was performed using two-sided Dunn’s post-hoc test with Benjamini-Hochberg correction for multiple comparisons (****/ ***/ **/ * indicates p < 0.0001/ 0.001/ 0.01/ 0.05). For detailed information on antibiotic and bacterial species, see Supplementary Table 1. For mode of action groups, refer to Table 1. Source data are provided as a Source Data file.
(1 picture or pasted object on this page, not shown here)

[3] = Pseudomonas aeruginosa, ATCCBAA3107, Pseudomonas aeruginosa ATCC BAA-3107 (PA-SEN)
[4] = Pseudomonas aeruginosa, ATCCBAA3107, Pseudomonas aeruginosa LESB 58 (PA-MDR)
[5] = EC-SEN (Escherichia coli ATCC 25922), evolved line 1 adapted to the named antibiotic
[6] = EC-SEN (Escherichia coli ATCC 25922), evolved line 2 adapted to the named antibiotic
[7] = EC-SEN (Escherichia coli ATCC 25922), evolved line 9 adapted to the named antibiotic

## CN(C)c1cc(CNCC(C)(C)C)c(O)c2c1C[C@H]1C[C@H]3[C@H](N(C)C)C(O)=C(C(N)=O)C(=O)[C@@]3(O)C(O)=C1C2=O [Omadacycline]
[1]; [3]
  MIC: > 32 µg/mL
[1]; [4]
  MIC: > 32 µg/mL
[2]; [5]
  Relative MIC (log10): 0.9031
[2]; [6]
  Relative MIC (log10): 0.9031
[2]; EC-SEN (Escherichia coli ATCC 25922), evolved line 3
  Relative MIC: 4
[2]; EC-SEN (Escherichia coli ATCC 25922), evolved line 4
  Relative MIC: 8
[2]; EC-SEN (Escherichia coli ATCC 25922), evolved line 5
  Relative MIC: 8
[2]; EC-SEN (Escherichia coli ATCC 25922), evolved line 5 adapted to the named antibiotic
  Relative MIC (log10): 0.9031
[2]; EC-SEN (Escherichia coli ATCC 25922), evolved line 6
  Relative MIC: 4
[2]; EC-SEN (Escherichia coli ATCC 25922), evolved line 6 adapted to the named antibiotic
  Relative MIC (log10): 0.6021
[2]; EC-SEN (Escherichia coli ATCC 25922), evolved line 7
  Relative MIC: 2
[2]; EC-SEN (Escherichia coli ATCC 25922), evolved line 8
  Relative MIC: 8
[2]; EC-SEN (Escherichia coli ATCC 25922), evolved line 9
  Relative MIC: 8
[2]; [7]
  Relative MIC (log10): 0.9031
[2]; EC-SEN (Escherichia coli ATCC 25922), evolved line 10
  Relative MIC: 4
[2]; EC-SEN ATCC 25922, evolved line 1, evolved line vs ancestor
  Relative MIC: 8
[2]; EC-SEN ATCC 25922, evolved line 2, evolved line vs ancestor
  Relative MIC: 8
[2]; EC-SEN ATCC 25922, evolved line 3, evolved line vs ancestor
  Relative MIC: 4
[2]; EC-SEN ATCC 25922, evolved line 4, evolved line vs ancestor
  Relative MIC: 8
[2]; EC-SEN ATCC 25922, evolved line 5, evolved line vs ancestor
  Relative MIC: 8
[2]; EC-SEN ATCC 25922, evolved line 6, evolved line vs ancestor
  Relative MIC: 4
[2]; EC-SEN ATCC 25922, evolved line 7, evolved line vs ancestor
  Relative MIC: 2
[2]; EC-SEN ATCC 25922, evolved line 8, evolved line vs ancestor
  Relative MIC: 8
[2]; EC-SEN ATCC 25922, evolved line 9, evolved line vs ancestor
  Relative MIC: 8
[2]; EC-SEN ATCC 25922, evolved line 10, evolved line vs ancestor
  Relative MIC: 4
[2]; EC-SEN, Escherichia coli ATCC 25922, evolved line 1
  Relative MIC: 8
[2]; EC-SEN, Escherichia coli ATCC 25922, evolved line 2
  Relative MIC: 8

## POL7306
[1]; Pseudomonas aeruginosa ATCC BAA-3107 (PA-SEN)
  MIC: 2 µg/mL
[1]; Pseudomonas aeruginosa LESB 58 (PA-MDR)
  MIC: 8 µg/mL
[2]; ALE, Escherichia coli ATCC 25922 (EC-SEN), evolved line 1
  Relative MIC: 2
[2]; ALE, Escherichia coli ATCC 25922 (EC-SEN), evolved line 2
  Relative MIC: 8
[2]; ALE, Escherichia coli ATCC 25922 (EC-SEN), evolved line 3
  Relative MIC: 4
[2]; ALE, Escherichia coli ATCC 25922 (EC-SEN), evolved line 4
  Relative MIC: 4
[2]; ALE, Escherichia coli ATCC 25922 (EC-SEN), evolved line 5
  Relative MIC: 4
[2]; ALE, Escherichia coli ATCC 25922 (EC-SEN), evolved line 6
  Relative MIC: 4
[2]; ALE, Escherichia coli ATCC 25922 (EC-SEN), evolved line 7
  Relative MIC: 4
[2]; ALE, Escherichia coli ATCC 25922 (EC-SEN), evolved line 8
  Relative MIC: 8
[2]; ALE, Escherichia coli ATCC 25922 (EC-SEN), evolved line 9
  Relative MIC: 8
[2]; ALE, Escherichia coli ATCC 25922 (EC-SEN), evolved line 10
  Relative MIC: 4
[2]; ALE, Escherichia coli NCTC 13846 (EC-MDR), evolved line 1
  Relative MIC: 2
[2]; ALE, Escherichia coli NCTC 13846 (EC-MDR), evolved line 2
  Relative MIC: 1
[2]; ALE, Escherichia coli NCTC 13846 (EC-MDR), evolved line 3
  Relative MIC: 1
[2]; ALE, Escherichia coli NCTC 13846 (EC-MDR), evolved line 4
  Relative MIC: 1
[2]; ALE, Escherichia coli NCTC 13846 (EC-MDR), evolved line 5
  Relative MIC: 1
[2]; ALE, Escherichia coli NCTC 13846 (EC-MDR), evolved line 6
  Relative MIC: 2
[2]; ALE, Escherichia coli NCTC 13846 (EC-MDR), evolved line 7
  Relative MIC: 2
[2]; ALE, Escherichia coli NCTC 13846 (EC-MDR), evolved line 8
  Relative MIC: 4
[2]; ALE, Escherichia coli NCTC 13846 (EC-MDR), evolved line 9
  Relative MIC: 1
[2]; ALE, Escherichia coli NCTC 13846 (EC-MDR), evolved line 10
  Relative MIC: 1

## C[C@H]1c2cccc(O)c2C(=O)C2=C(O)[C@]3(O)C(=O)C(C(N)=O)=C(O)[C@@H](N(C)C)[C@@H]3[C@@H](O)[C@@H]21 [Doxycycline]
[1]; P. aeruginosa ATCC BAA 3107 (PA-SEN), sheet fig 2a
  MIC of ancestor: 4 µg/mL
[1]; Pseudomonas aeruginosa ATCC BAA 3107 (PA-SEN)
  MIC of ancestor: 4 µg/mL
[1]; [3]
  MIC: 4 µg/mL
[1]; [4]
  MIC: 32 µg/mL
[2]; EC-SEN (ATCC 25922), evolved line 1, MIC of evolved line / MIC of ancestor
  Relative MIC: 32
[2]; EC-SEN (ATCC 25922), evolved line 2, MIC of evolved line / MIC of ancestor
  Relative MIC: 16
[2]; EC-SEN (ATCC 25922), evolved line 3, MIC of evolved line / MIC of ancestor
  Relative MIC: 32
[2]; EC-SEN (ATCC 25922), evolved line 4, MIC of evolved line / MIC of ancestor
  Relative MIC: 128
[2]; EC-SEN (ATCC 25922), evolved line 6, MIC of evolved line / MIC of ancestor
  Relative MIC: 8
[2]; EC-SEN (ATCC 25922), evolved line 7, MIC of evolved line / MIC of ancestor
  Relative MIC: 16
[2]; EC-SEN (ATCC 25922), evolved line 8, MIC of evolved line / MIC of ancestor
  Relative MIC: 32
[2]; EC-SEN (ATCC 25922), evolved line 9, MIC of evolved line / MIC of ancestor
  Relative MIC: 16
[2]; EC-SEN (ATCC 25922), evolved line 10, MIC of evolved line / MIC of ancestor
  Relative MIC: 16
[2]; [5]
  Relative MIC (log10): 1.505
[2]; [6]
  Relative MIC (log10): 1.204
[2]; EC-SEN (Escherichia coli ATCC 25922), evolved line 3 adapted to the named antibiotic
  Relative MIC (log10): 1.505
[2]; EC-SEN (Escherichia coli ATCC 25922), evolved line 8 adapted to the named antibiotic
  Relative MIC (log10): 1.505
[2]; [7]
  Relative MIC (log10): 1.204
[2]; Escherichia coli ATCC 25922 (EC-SEN), evolved line 1
  Relative MIC: 32
[2]; Escherichia coli ATCC 25922 (EC-SEN), evolved line 2
  Relative MIC: 16
[2]; Escherichia coli ATCC 25922 (EC-SEN), evolved line 3
  Relative MIC: 32
[2]; Escherichia coli ATCC 25922 (EC-SEN), evolved line 4
  Relative MIC: 128
[2]; Escherichia coli ATCC 25922 (EC-SEN), evolved line 6
  Relative MIC: 8
[2]; Escherichia coli ATCC 25922 (EC-SEN), evolved line 7
  Relative MIC: 16
[2]; Escherichia coli ATCC 25922 (EC-SEN), evolved line 8
  Relative MIC: 32
[2]; Escherichia coli ATCC 25922 (EC-SEN), evolved line 9
  Relative MIC: 16
[2]; Escherichia coli ATCC 25922 (EC-SEN), evolved line 10
  Relative MIC: 16
